The test system of experiment [1] is Gli-luciferase activity. Kind of experiment: Reporter gene assay (RGA) in TMHh12 cells, antagonism of Gli-luciferase activity in the presence of a Smo agonist. Format: cell-based. As for the experimental part:
Activity of the compounds was evaluated using a reporter gene assay (RGA) in TMHh12 cells.
On the technique in general: In a reporter assay the amount or activity of a reporter protein is the signal.

The target of experiment [2] is human Smoothened receptor (Homo sapiens, UniProt Q99835). Kind of experiment: Smo binding assay, displacement of radio-labeled smoothened agonist, filter binding format (human). To be noted: displacement of small molecule agonist of Smoothened, read-out: Human Smo bdg., IC50. The text has this: A Smo binding assay was developed using radio-labeled smoothened agonist for compound competition. Table 9 lists the IC50 for displacement of a small molecule agonist of Smoothened determined in a filter binding format for the mouse and human Smoothened receptor.

In experiment [3] the target is mouse Smoothened receptor (Mus musculus, UniProt P56726). In words: Smo binding assay, displacement of radio-labeled smoothened agonist, filter binding format (mouse). The following applies: displacement of small molecule agonist of Smoothened, read-out: Mouse Smo bdg., IC50. The text has this: A Smo binding assay was developed using radio-labeled smoothened agonist for compound competition.

The mark [4] stands for this setting: 25 nM small molecule Smo agonist, read-out: RGA (25 nM Smo agonist) IC50.
Where [5] appears, read: read-out: RGA (1 nM Smo agonist) IC50, 1 nM small molecule Smo agonist.

SMILES strings stand for the structures. pIC50: −log10 of the molar value. Like-named read-outs stand apart in the source and are kept apart here.

By pIC50 is commonly meant −log10 of the IC50, conventionally taken in molar units.

Chain of human Smoothened receptor (Q99835 28-787): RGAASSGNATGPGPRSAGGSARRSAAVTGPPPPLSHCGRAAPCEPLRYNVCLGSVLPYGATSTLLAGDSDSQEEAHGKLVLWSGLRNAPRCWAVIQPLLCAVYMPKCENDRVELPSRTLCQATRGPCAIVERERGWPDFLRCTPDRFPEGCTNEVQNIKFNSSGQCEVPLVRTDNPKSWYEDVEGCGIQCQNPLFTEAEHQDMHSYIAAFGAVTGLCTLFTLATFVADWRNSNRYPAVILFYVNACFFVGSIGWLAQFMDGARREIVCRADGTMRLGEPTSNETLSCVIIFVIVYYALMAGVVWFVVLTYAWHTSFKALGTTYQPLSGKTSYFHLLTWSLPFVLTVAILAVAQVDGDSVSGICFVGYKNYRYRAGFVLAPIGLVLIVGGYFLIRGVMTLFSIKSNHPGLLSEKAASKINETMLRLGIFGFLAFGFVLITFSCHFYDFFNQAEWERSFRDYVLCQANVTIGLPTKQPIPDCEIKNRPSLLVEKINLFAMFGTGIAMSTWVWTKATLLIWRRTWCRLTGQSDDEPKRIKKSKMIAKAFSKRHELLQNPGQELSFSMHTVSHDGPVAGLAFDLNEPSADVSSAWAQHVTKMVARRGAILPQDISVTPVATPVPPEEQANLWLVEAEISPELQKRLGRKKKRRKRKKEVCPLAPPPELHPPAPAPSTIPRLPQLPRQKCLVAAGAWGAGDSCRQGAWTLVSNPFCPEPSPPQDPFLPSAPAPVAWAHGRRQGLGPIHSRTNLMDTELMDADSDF
Chain of mouse Smoothened receptor (P56726 33-793): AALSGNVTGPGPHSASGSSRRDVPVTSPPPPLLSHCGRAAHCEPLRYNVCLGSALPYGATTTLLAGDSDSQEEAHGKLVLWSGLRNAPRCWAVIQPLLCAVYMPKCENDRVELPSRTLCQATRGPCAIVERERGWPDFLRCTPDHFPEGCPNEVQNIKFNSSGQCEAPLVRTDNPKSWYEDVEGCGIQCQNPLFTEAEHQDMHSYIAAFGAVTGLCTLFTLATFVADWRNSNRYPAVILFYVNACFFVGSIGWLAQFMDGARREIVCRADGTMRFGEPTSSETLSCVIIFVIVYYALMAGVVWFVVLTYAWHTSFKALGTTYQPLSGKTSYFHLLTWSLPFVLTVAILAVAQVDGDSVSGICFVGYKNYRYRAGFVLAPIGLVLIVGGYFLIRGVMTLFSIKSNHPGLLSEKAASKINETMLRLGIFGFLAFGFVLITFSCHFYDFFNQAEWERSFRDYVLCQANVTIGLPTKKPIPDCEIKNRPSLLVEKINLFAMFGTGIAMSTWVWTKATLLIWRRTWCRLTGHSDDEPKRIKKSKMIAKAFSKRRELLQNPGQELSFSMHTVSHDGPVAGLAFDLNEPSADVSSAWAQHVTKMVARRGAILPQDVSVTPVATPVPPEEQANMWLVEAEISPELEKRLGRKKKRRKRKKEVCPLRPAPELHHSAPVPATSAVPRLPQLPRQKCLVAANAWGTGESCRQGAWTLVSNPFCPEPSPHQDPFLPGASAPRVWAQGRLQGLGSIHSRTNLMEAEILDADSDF

For `CCOC(=O)c1ccc(N2CCN(c3nnc(Cc4ccc(Cl)cc4Cl)c4ccccc34)CC2)nc1` [Example 186], the negative-log IC50 (pIC50) in experiment [1] (setting [4]) is 6.00 to 7.00; in experiment [1] (setting [5]), 6.00 to 7.00; in experiment [2], over 7.00; in experiment [3], over 7.00.
Take `CCOC(=O)c1ccc(N2CCN(c3nnc(Cc4ccc(F)cc4F)c4ccccc34)[C@@H](C)C2)nc1` [Example 187]: the pIC50 in experiment [1] (setting [4]) is 6.00 to 7.00; in experiment [1] (setting [5]) it was over 7.00; in experiment [2], over 7.00; in experiment [3] it was over 7.00.
For `CCOC(=O)c1ccc(N2CCN(c3nnc(Cc4ccccc4Cl)c4ccccc34)[C@@H](C)C2)nc1` [Example 188], the negative logarithm of the IC50 (pIC50) is 6.00 to 7.00 in experiment [1] (setting [4]), over 7.00 in experiment [1] (setting [5]), over 7.00 in experiment [2] and over 7.00 in experiment [3].
With `CC(C)(O)c1ccc(N2CCN(c3nnc(Cc4ccc(F)cc4)c4ccccc34)CC2)nc1` [Example 191, 2-(6-{4-[4-(4-Fluoro-benzyl)-phthalazin-1-yl]-piperazin-1-yl}-pyridin-3-yl)-propan-2-ol], the pIC50 in experiment [1] (setting [4]), in experiment [1] (setting [5]), in experiment [2] and in experiment [3] was over 7.00 throughout.
As for `CC(C)(O)c1ccc(N2CCN(c3nnc(Cc4ccccc4Cl)c4ccccc34)CC2)nc1` [Example 192], the pIC50 in experiment [1] (setting [4]) was 6.00 to 7.00; in experiment [1] (setting [5]), over 7.00; in experiment [2] it was over 7.00; in experiment [3], over 7.00.
Turning to `CC(C)(O)c1ccc(N2CCN(c3nnc(Cc4ccc(F)cc4F)c4ccccc34)CC2)nc1` [Example 193], the pIC50 in experiment [1] (setting [4]), in experiment [1] (setting [5]), in experiment [2] and in experiment [3] was over 7.00 each time.
As for `Cc1ccccc1Cc1nnc(N2CCN(c3ccc(C(C)(C)O)cn3)CC2)c2ccccc12` [Example 194], the negative-log IC50 (pIC50) was 6.00 to 7.00 in experiment [1] (setting [4]), over 7.00 in experiment [1] (setting [5]), over 7.00 in experiment [2] and over 7.00 in experiment [3].
With `C[C@H]1CN(c2ccc(C(C)(C)O)cn2)CCN1c1nnc(Cc2ccc(F)cc2F)c2ccccc12` [Example 195], the pIC50 in experiment [1] (setting [4]), in experiment [1] (setting [5]), in experiment [2] and in experiment [3] was over 7.00 throughout.
Turning to `C[C@H]1CN(c2ccc(C(C)(C)O)cn2)CCN1c1nnc(Cc2ccccc2Cl)c2ccccc12` [Example 196], the pIC50 in experiment [1] (setting [4]), in experiment [1] (setting [5]), in experiment [2] and in experiment [3] was over 7.00 throughout.
With `CN(CCO)C(=O)c1ccc(N2CCN(c3nnc(Cc4ccc(F)cc4)c4ccccc34)CC2)nc1` [Example 198, 6-{4-[4-(4-Fluoro-benzyl)-phthalazin-1-yl]-piperazin-1-yl}-N-(2-hydroxyethyl)-N-methyl-nicotinamide], the negative logarithm of the IC50 (pIC50) is 6.00 to 7.00 in experiment [1] (setting [4]), over 7.00 in experiment [1] (setting [5]), over 7.00 in experiment [2] and over 7.00 in experiment [3].
Take `CN(CCO)C(=O)c1ccc(N2CCN(c3nnc(Cc4ccc(F)cc4F)c4ccccc34)CC2)nc1` [Example 199]: the negative-log IC50 (pIC50) is 6.00 to 7.00 in experiment [1] (setting [4]), over 7.00 in experiment [1] (setting [5]), 6.00 to 7.00 in experiment [2] and 6.00 to 7.00 in experiment [3].
With `CN(CCO)C(=O)c1ccc(N2CCN(c3nnc(Cc4ccccc4Cl)c4ccccc34)CC2)nc1` [Example 200], the negative-log IC50 (pIC50) in experiment [1] (setting [4]) was 6.00 to 7.00; in experiment [1] (setting [5]), over 7.00; in experiment [2], over 7.00; in experiment [3], over 7.00.
For the compound `CN(CCO)C(=O)c1ccc(N2CCN(c3nnc(Cc4ccc(Cl)c(Cl)c4)c4ccccc34)CC2)nc1` [Example 201], the pIC50 in experiment [1] (setting [4]) was 6.00 to 7.00; in experiment [1] (setting [5]) it was over 7.00; in experiment [2] it was over 7.00; in experiment [3] it was over 7.00.
With `CCOC(=O)c1ccc(N2CCN(c3nnc(CN4CCOCC4)c4ccccc34)CC2)nc1` [Example 203, 6-[4-(4-Morpholin-4-ylmethyl-phthalazin-1-yl)-piperazin-1-yl]-nicotinic acid ethyl ester], the pIC50 in experiment [1] (setting [4]) is 5.00 to 6.00; in experiment [1] (setting [5]), 6.00 to 7.00; in experiment [2], 6.00 to 7.00; in experiment [3] it was 6.00 to 7.00.
Turning to `CCC(=O)NCc1ccc(N2CCN(c3nnc(Cc4ccccc4)c4ccccc34)CC2)nc1` [Example 207], the pIC50 in experiment [1] (setting [4]) is 6.00 to 7.00; in experiment [1] (setting [5]), over 7.00; in experiment [2], 6.00 to 7.00; in experiment [3], 6.00 to 7.00.
Turning to `COCC(=O)NCc1ccc(N2CCN(c3nnc(Cc4ccccc4)c4ccccc34)CC2)nc1` [Example 208], the negative-log IC50 (pIC50) was over 7.00 in experiment [1] (setting [4]), over 7.00 in experiment [1] (setting [5]), 6.00 to 7.00 in experiment [2] and 6.00 to 7.00 in experiment [3].
`CC(C)CC(=O)NCc1ccc(N2CCN(c3nnc(Cc4ccccc4)c4ccccc34)CC2)nc1` [Example 210]: the negative-log IC50 (pIC50) in experiment [1] (setting [4]), in experiment [1] (setting [5]), in experiment [2] and in experiment [3] was over 7.00 each time.
Turning to `CC(C)OC(=O)NCc1ccc(N2CCN(c3nnc(Cc4ccccc4)c4ccccc34)CC2)nc1` [Example 211], the negative logarithm of the IC50 (pIC50) is 6.00 to 7.00 in experiment [1] (setting [4]), over 7.00 in experiment [1] (setting [5]), over 7.00 in experiment [2] and over 7.00 in experiment [3].
For the compound `CN(C)CC(=O)NCc1ccc(N2CCN(c3nnc(Cc4ccccc4)c4ccccc34)CC2)nc1` [Example 212], the negative-log IC50 (pIC50) in experiment [1] (setting [4]) is 6.00 to 7.00; in experiment [1] (setting [5]), over 7.00; in experiment [2], over 7.00; in experiment [3] it was over 7.00.
With `CC(O)CC(=O)NCc1ccc(N2CCN(c3nnc(Cc4ccccc4)c4ccccc34)CC2)nc1` (centres unmarked) [Example 213], the pIC50 in experiment [1] (setting [4]) was 6.00 to 7.00; in experiment [1] (setting [5]), over 7.00; in experiment [2], 6.00 to 7.00; in experiment [3], 6.00 to 7.00.
With `CC(=O)NCc1ccc(N2CCN(c3nnc(Cc4ccccc4)c4ccccc34)[C@@H](C)C2)nc1` [Example 216], the negative logarithm of the IC50 (pIC50) in experiment [1] (setting [4]), in experiment [1] (setting [5]), in experiment [2] and in experiment [3] was over 7.00 each time.
Regarding `CN(C)Cc1ccc(N2CCN(c3nnc(Cc4ccccc4)c4ccccc34)CC2)nc1` [Example 217, {6-[4-(4-Benzyl-phthalazin-1-yl)-piperazin-1-yl]-pyridin-3-ylmethyl}-dimethyl-amine], the pIC50 in experiment [1] (setting [4]) was 5.00 to 6.00; in experiment [1] (setting [5]) it was over 7.00; in experiment [2], 5.00 to 6.00; in experiment [3] it was 5.00 to 6.00.
Turning to `OC(c1ccc(N2CCN(c3nnc(Cc4ccccc4)c4ccccc34)CC2)nc1)C1CC1` (centres unmarked) [Example 219], the negative-log IC50 (pIC50) in experiment [1] (setting [4]) is 6.00 to 7.00; in experiment [1] (setting [5]), 6.00 to 7.00; in experiment [2], over 7.00; in experiment [3] it was over 7.00.
For `CC(C)C(O)c1ccc(N2CCN(c3nnc(Cc4ccccc4)c4ccccc34)CC2)nc1` (centres unmarked) [Example 220], the pIC50 in experiment [1] (setting [4]), in experiment [1] (setting [5]), in experiment [2] and in experiment [3] was over 7.00 throughout.
Consider `OC(c1ccc(N2CCN(c3nnc(Cc4ccccc4)c4ccccc34)CC2)nc1)C1CCCC1` (centres unmarked) [Example 221], for which the pIC50 is 6.00 to 7.00 in experiment [1] (setting [4]), over 7.00 in experiment [1] (setting [5]), over 7.00 in experiment [2] and over 7.00 in experiment [3].
`c1ccc(Cc2nnc(N3CCN(c4ccc(CN5CCOCC5)cn4)CC3)c3ccccc23)cc1` [Example 222, 1-Benzyl-4-[4-(5-morpholin-4-ylmethyl-pyridin-2-yl)-piperazin-1-yl]-phthalazine]: the negative logarithm of the IC50 (pIC50) in experiment [1] (setting [4]), in experiment [1] (setting [5]), in experiment [2] and in experiment [3] was over 7.00 in each case.

For the origin of these results see US8536168B2 (Novartis AG, priority 2007, dated 2013).
